Measured values taken from ChEMBL document CHEMBL3885861, “Open TG-GATES”.

Organism: Rattus norvegicus
Experiment: Open TG-GATES - Regimen: Single
Assay type: toxicity, organism-based, Sprague-Dawley
Parameters: regimen Single, gender Male, age 6 weeks
Conditions: in vivo, po, 10 mg/kg, route gavage, dose level Low; for Bas / Eos / Hb / Ht / Lym / MCH / MCHC / MCV / Mono / Neu / Plat / RBC / Ret / WBC: tissue Blood; for KIDNEY_L / KIDNEY_R / KIDNEY_TOTAL: tissue Kidney; for LIVER: tissue Liver; for A/G / ALP / ALT / AST / BUN / CRE / Ca / Cl / DBIL / GLC / IP / K / LDH / Na / PL / RALB / TBIL / TC / TG / TP / gamma-GTP: tissue Plasma

Cc1ccc2cc3c(ccc4ccccc43)c3c2c1CC3 [3-METHYLCHOLANTHRENE]
TERMINAL_BW (3 h): 210.8 g | Bas (3 h): 0% | Eos (3 h): 0.8% | Hb (3 h): 12.6 g/dL | Ht (3 h): 39.3% | Lym (3 h): 77.6% | MCH (3 h): 20.5 pg | MCHC (3 h): 32.2% | MCV (3 h): 63.7 fL | Mono (3 h): 3.4% | Neu (3 h): 17.8% | Plat (3 h): 130.6 x10_4/uL | RBC (3 h): 616.6 x10_4/ul | Ret (3 h): 9.1% | WBC (3 h): 94.8 x10_2/uL | KIDNEY_L (3 h): 0.9 g | KIDNEY_R (3 h): 0.9 g | KIDNEY_TOTAL (3 h): 1.8 g | LIVER (3 h): 9.5 g | A/G (3 h): 1 | ALP (3 h): 1720 IU/L | ALT (3 h): 46.6 IU/L | AST (3 h): 81 IU/L | BUN (3 h): 13.1 mg/dL | CRE (3 h): 0.1 mg/dL | Ca (3 h): 10.9 mg/dL | Cl (3 h): 103 meq/L | DBIL (3 h): 0.002 mg/dL | GLC (3 h): 175.4 mg/dL | IP (3 h): 8.4 mg/dL | K (3 h): 4.2 meq/L | LDH (3 h): 201.8 IU/L | Na (3 h): 139.7 meq/L | PL (3 h): 172 mg/dL | RALB (3 h): 2.9 g/dL | TBIL (3 h): 0.004 mg/dL | TC (3 h): 80 mg/dL | TG (3 h): 185.2 mg/dL | TP (3 h): 5.6 g/dL | gamma-GTP (3 h): 0.7 IU/L | TERMINAL_BW (6 h): 205.3 g | Bas (6 h): 0% | Eos (6 h): 0.4% | Hb (6 h): 12.9 g/dL | Ht (6 h): 38.8% | Lym (6 h): 73.8% | MCH (6 h): 20.7 pg | MCHC (6 h): 33.3% | MCV (6 h): 62.1 fL | Mono (6 h): 3.6% | Neu (6 h): 21.2% | Plat (6 h): 131.8 x10_4/uL | RBC (6 h): 625.8 x10_4/ul | Ret (6 h): 7.9% | WBC (6 h): 136.1 x10_2/uL | KIDNEY_L (6 h): 0.9 g | KIDNEY_R (6 h): 0.9 g | KIDNEY_TOTAL (6 h): 1.8 g | LIVER (6 h): 8.3 g | A/G (6 h): 1 | ALP (6 h): 1483.2 IU/L | ALT (6 h): 37.6 IU/L | AST (6 h): 74.6 IU/L | BUN (6 h): 8.2 mg/dL | CRE (6 h): 0.1 mg/dL | Ca (6 h): 10.6 mg/dL | Cl (6 h): 105.3 meq/L | DBIL (6 h): 0.002 mg/dL | GLC (6 h): 165.8 mg/dL | IP (6 h): 9.2 mg/dL | K (6 h): 4.2 meq/L | LDH (6 h): 162 IU/L | Na (6 h): 140.5 meq/L | PL (6 h): 160.6 mg/dL | RALB (6 h): 2.8 g/dL | TBIL (6 h): 0.004 mg/dL | TC (6 h): 87.6 mg/dL | TG (6 h): 79.2 mg/dL | TP (6 h): 5.6 g/dL | gamma-GTP (6 h): 0.7 IU/L | TERMINAL_BW (9 h): 205.9 g | Bas (9 h): 0% | Eos (9 h): 0.8% | Hb (9 h): 12.2 g/dL | Ht (9 h): 37.7% | Lym (9 h): 74.2% | MCH (9 h): 20.2 pg | MCHC (9 h): 32.5% | MCV (9 h): 62 fL | Mono (9 h): 2.8% | Neu (9 h): 21.6% | Plat (9 h): 122.2 x10_4/uL | RBC (9 h): 608.4 x10_4/ul | Ret (9 h): 8.9% | WBC (9 h): 114.6 x10_2/uL | KIDNEY_L (9 h): 0.9 g | KIDNEY_R (9 h): 0.9 g | KIDNEY_TOTAL (9 h): 1.7 g | LIVER (9 h): 8.3 g | A/G (9 h): 1 | ALP (9 h): 1540.8 IU/L | ALT (9 h): 33.6 IU/L | AST (9 h): 72 IU/L | BUN (9 h): 11.6 mg/dL | CRE (9 h): 0.1 mg/dL | Ca (9 h): 10.5 mg/dL | Cl (9 h): 104.7 meq/L | DBIL (9 h): 0 mg/dL | GLC (9 h): 174.4 mg/dL | IP (9 h): 10.2 mg/dL | K (9 h): 4.4 meq/L | LDH (9 h): 186.6 IU/L | Na (9 h): 142.1 meq/L | PL (9 h): 155.2 mg/dL | RALB (9 h): 2.8 g/dL | TBIL (9 h): 0.002 mg/dL | TC (9 h): 81.4 mg/dL | TG (9 h): 90.6 mg/dL | TP (9 h): 5.5 g/dL | gamma-GTP (9 h): 0.8 IU/L | TERMINAL_BW (24 h): 216.8 g | Bas (24 h): 0% | Eos (24 h): 0.2% | Hb (24 h): 12.7 g/dL | Ht (24 h): 38.9% | Lym (24 h): 79% | MCH (24 h): 20.2 pg | MCHC (24 h): 32.6% | MCV (24 h): 62 fL | Mono (24 h): 3.4% | Neu (24 h): 16.2% | Plat (24 h): 120.4 x10_4/uL | RBC (24 h): 627.6 x10_4/ul | Ret (24 h): 7.9% | WBC (24 h): 105.1 x10_2/uL | KIDNEY_L (24 h): 0.9 g | KIDNEY_R (24 h): 1 g | KIDNEY_TOTAL (24 h): 1.9 g | LIVER (24 h): 10.7 g | A/G (24 h): 1 | ALP (24 h): 1758 IU/L | ALT (24 h): 40.6 IU/L | AST (24 h): 73.8 IU/L | BUN (24 h): 15.7 mg/dL | CRE (24 h): 0.1 mg/dL | Ca (24 h): 10.9 mg/dL | Cl (24 h): 103.5 meq/L | DBIL (24 h): 0.002 mg/dL | GLC (24 h): 179.6 mg/dL | IP (24 h): 6.9 mg/dL | K (24 h): 4.4 meq/L | LDH (24 h): 173.4 IU/L | Na (24 h): 141.7 meq/L | PL (24 h): 165.6 mg/dL | RALB (24 h): 2.8 g/dL | TBIL (24 h): 0.002 mg/dL | TC (24 h): 81.6 mg/dL | TG (24 h): 150.3 mg/dL | TP (24 h): 5.5 g/dL | gamma-GTP (24 h): 0.8 IU/L
